Measured values reported in patent US12384777B2 (Tay Therapeutics Limited, priority 2019, dated 2025).
Like-named read-outs stand apart in the source and are kept apart here.

What was measured:
human liver hepatocytes = test: Intrinsic clearance in human liver hepatocytes; assay type: in vitro ADME; details: human cryopreserved hepatocytes, 0.5 μM test compound
Method in brief: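 Cryopreserved human hepatocytes in supplemented Williams Medium E were incubated at 37 °C, 5% CO2, with 0.5 μM compound at 0.25 million cells/mL final. Aliquots taken up to 120 min were quenched into acetonitrile and analysed by UPLC-MS/MS. Clearance came from an exponential decay fit of compound-to-internal-standard ratio over time.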

BRD4 BD1 = BRD4 BD1 (Homo sapiens (Human), UniProt O60885); test: Bromodomain binding assay (T7 phage display, qPCR), BRD4 BD1; details: for Kd: read-out: BRD4 BD1 Kd
[1] = system: primary keratinocytes stimulated by polyinosinic:polycytidylic acid; test: Cellular activity broad panel: reduction of cytokine/chemokine levels in stimulated primary keratinocytes; assay type: cell-based; details: Homo sapiens, Keratinocyte
Experimental: • 1. Seed Primary Human Keratinocytes cells (PHK) at 9000 cells/well in a flat bottom 96 well plate. • 2. […] Cells are cultured for 24 hr prior to TLR ligand stimulation (polyinosinic:polycytidylic acid). • 4. Cells are treated with 20 μg/mL polyinosinic:polycytidylic acid for 48 hrs in 180 μL of media and treated for different compounds or controls. • 5. Supernatant is collected and Chemokine and Cytokines analysis is performed by Magpix-Luminex. Immunoassay Procedure Day 1 • 1. Add 200 μL of Assay Buffer per well. Shake 10 min, RT. Decant. • 2. Add 25 μL of Standard or Control to the appropriate wells. • 3. Add 25 μL of Assay Buffer to background and sample wells. • 4. Add 25 μL of cell media to background, standard and control wells. • 5. Add 25 μL neat samples to sample wells. • 6. Add 25 μL of Beads to each well. • 7. Incubate overnight (16-18 hr) at 4° C. Day 2 • 8. Remove well contents and wash 2× with 200 μL Wash buffer. • 9. Add 25 μL of Detection Antibodies per well. • 10. Incubate 1 hr at RT (20-25° C.). • 11. […] Incubate for 30 min at RT. • 13. Remove well contents and wash 2× with 200 μL Wash buffer. • 14. Add 150 μL of Wash Buffer per well. Resuspend the beads on a plate shaker for 5 min. • 15. Read on Luminex 100 μl (50 beads per bead set).

[2] = system: CD4+ T-cells stimulated by CD2, CD3 and CD28 antibodies; test: Cellular activity IL-4: reduction of IL-4 levels in activated CD4+ T-cells; assay type: cell-based, human; details: Homo sapiens, T-cell
Experimental: • 1. CD4^+ T-cells are isolated from cryopreserved human peripheral blood mononuclear cells (PBMCs) using EasySep™ Kit (Cat. No. 17952, Stemcell Technologies). • 2. CD2, CD3 and CD28 antibodies coated beads from T cell Activation/Expansion Kit (Cat. No. 130-091-441, Miltenyi Biotec) are added to the CD4^+ T-cells at a bead-to-cell ratio of 1:2. • 3. CD4^+ T-cells along with the beads are seeded at 2×10^5 cells/well in a round bottom 96-well plate and treated with different compounds and controls in a total volume of 200 μl. • 4. The cells are cultured for 48 hrs at 37° C., 5% CO2. • 5. Supernatant is collected and IL-4 is analysed by ELISA.

[3] = disease relevant markers, read-out: cellular EC50 values in stimulated human primary keratinocytes
[4] = poly I:C 20 μg/mL, 48 hrs, read-out: EC50 reduction of CCL2
[5] = poly I:C 20 μg/mL, 48 hrs, read-out: EC50 reduction of CCL20
[6] = poly I:C 20 μg/mL, 48 hrs, read-out: EC50 reduction of CCL27
[7] = poly I:C 20 μg/mL, 48 hrs, read-out: EC50 reduction of CXCL9
[8] = poly I:C 20 μg/mL, 48 hrs, read-out: EC50 reduction of GM-CSF
[9] = poly I:C 20 μg/mL, 48 hrs, read-out: EC50 reduction of IL-1a
[10] = poly I:C 20 μg/mL, 48 hrs, read-out: EC50 reduction of IL-6
[11] = poly I:C 20 μg/mL, 48 hrs, read-out: EC50 reduction of IL-8
[12] = poly I:C 20 μg/mL, 48 hrs, read-out: EC50 reduction of TNF-a
[13] = poly I:C 20 μg/mL, 48 hrs, read-out: EC50 reduction of TSLP
[14] = 48 hrs, ELISA, read-out: EC50 reduction of IL-4 levels
[15] = read-out: cellular EC50 values, reduction of IL-4 levels

Row | SMILES | Intrinsic clearance, % Liver Blood Flow (human liver hepatocytes) [% Liver Blood Flow] | Kd (BRD4 BD1) [nM] | EC50 [1, 3] [nM] | EC50 [1, 4] [nM] | EC50 [1, 5] [nM] | EC50 [1, 6] [nM] | EC50 [1, 7] [nM] | EC50 [1, 8] [nM] | EC50 [1, 9] [nM] | EC50 [1, 10] [nM] | EC50 [1, 11] [nM] | EC50 [1, 12] [nM] | EC50 [1, 13] [nM] | EC50 [2, 14] [nM] | EC50 [2, 15] [nM] | BRD4(1) % Ctrl (BRD4 BD1; single point, screened at 30 times Kd, lower numbers indicate stronger hits) [% Ctrl]
1 | Cn1cc(-c2c(O)cccc2Oc2ccccc2)c2cc[nH]c2c1=O [Example 3, 4-(2-hydroxy-6-phenoxyphenyl)-6-methyl-1,6-dihydro-7H-pyrrolo[2,3-c]pyridin-7-one] | 86 | 10 to 100 | < 100 | ≤ 10 | ≤ 10 | 10 to 100 | ≤ 10 | ≤ 10 | ≤ 10 | 10 to 100 | ≤ 10 | ≤ 10 | ≤ 10 | 10 to 100 | < 100 | 
2 | Cn1cc(-c2cccc(O)c2Oc2ccccc2)c2cc[nH]c2c1=O [Example 1, 4-(3-hydroxy-2-phenoxyphenyl)-6-methyl-1,6-dihydro-7H-pyrrolo[2,3-c]pyridin-7-one] | 83 | ≤ 10 | < 100 | 10 to 100 | 10 to 100 | 10 to 100 | ≤ 10 | ≤ 10 | ≤ 10 | 10 to 100 | ≤ 10 | ≤ 10 | 10 to 100 | ≤ 10 | < 100 | 0
